Data set [1] has as its system K562. As to the kind of experiment: Antiproliferative activity against human K562 cells assessed as reduction in cell growth after 72 hrs by MTT assay. The data set is classed as functional, cell-based. Conditions: K562, 72 h. In general terms: Tetrazolium assays rely on reduction of a dye to a coloured formazan, in cell work by metabolically active cells.
The subject of the next data set is MDA-MB-231. The experiment in a line: Antiproliferative activity against human MDA-MB-231 cells assessed as reduction in cell growth after 72 hrs by MTT assay. The data set is classed as functional, cell-based. Conditions: MDA-MB-231, 72 h.
Data set [2] concerns K562. The experiment in a line: Potency index, ratio of oridonin IC50 to compound IC50 for antiproliferative activity against human K562 cells after 72 hrs by MTT assay. It counts as functional.
Another data set relates to SW480. As to the kind of experiment: Antiproliferative activity against human SW480 cells assessed as reduction in cell growth after 72 hrs by MTT assay. It counts as functional, cell-based. Conditions: SW480, 72 h.
The subject of another data set is SMMC-7721. The experiment in a line: Antiproliferative activity against human SMMC-7721 cells assessed as reduction in cell growth after 72 hrs by MTT assay. It counts as functional, cell-based. The note with it: SMMC-7721, 72 h.
Data set [3] can be described thus: Selectivity index, ratio of IC50 for human L02 cells to IC50 for human SMMC-7721 cells. It counts as toxicity. The note with it: L02 cells versus SMMC-7721 cells, read-out: Ratio IC50.
Data set [4] in a line: Cytotoxicity against human L02 cells incubated for 72 hrs by MTT assay. It counts as toxicity, cell-based.

pIC50: −log10 of the molar value.

For orientation: pIC50 means the IC50 on a negative log10 scale, so that one unit is a factor of ten. As usually defined, the IC50 is the point on the concentration scale where inhibition reaches its midpoint.

Regarding `C=C1C(=O)[C@@]23C(=O)O[C@H]4CCC(C)(C)[C@H]5C(=O)OC[C@]45[C@H]2CC[C@@H]1[C@H]3OC(=O)/C=C/c1ccncc1`, the pIC50 with K562 [1] is 6.26; in the data set with MDA-MB-231 it was 6.09; in the data set with SW480, 6.15; with SMMC-7721 it was 6.08. The “Ratio IC50” value with K562 [2] was found to be 8.

Regarding `C=C1C(=O)[C@@]23C(=O)OC[C@]4(C=CCC(C)(C)[C@H]4C=O)[C@@H]2CC[C@@H]1[C@H]3OC(=O)/C=C/c1ccc[nH]1`, the pIC50 is 5.84 in the data set with K562 [1], 5.40 in the data set with MDA-MB-231, 5.61 in the data set on SW480 and 5.52 in the data set on SMMC-7721.

For `C=C1C(=O)[C@@]23C(=O)O[C@H]4CCC(C)(C)[C@H]5C(=O)OC[C@]45[C@H]2CC[C@@H]1[C@H]3OC(=O)/C=C/c1ccnc(F)c1`, the negative-log IC50 (pIC50) is 6.19 in the data set on K562 [1], 6.12 with MDA-MB-231, 6.11 with SW480 and 6.09 with SMMC-7721.

Consider `C=C1C(=O)[C@@]23C(=O)OC[C@]4(C=CCC(C)(C)[C@H]4C=O)[C@@H]2CC[C@@H]1[C@H]3OC(=O)/C=C/c1ccncc1`, for which the pIC50 in the data set with K562 [1] is 6.23; in the data set on MDA-MB-231, 6.12; in the data set with SW480 it was 6.09; with SMMC-7721 it was 5.77. Further, the “Ratio IC50” value in the data set with K562 [2] came to 7.

`C=C1C(=O)[C@]23[C@H](O)[C@H]1CC[C@H]2[C@@]12CO[C@]3(O)[C@@H](O)[C@@H]1C(C)(C)CC[C@@H]2O` [ORIDONIN]: the selectivity ratio in data set [3] came out at 1.74. The figures for the pIC50 in the data set with K562 [1], in the data set with SW480 and in the data set on SMMC-7721 were 5.37, 4.98 and 4.84, respectively. This molecule yielded an IC50 at 72 h in data set [4] of 25000 nM.

On to `C=C1C(=O)[C@@]23C(=O)OC[C@]4(C=CCC(C)(C)[C@H]4C=O)[C@@H]2CC[C@@H]1[C@H]3O`, for which the negative logarithm of the IC50 (pIC50) in the data set on K562 [1] was 5.90; in the data set with MDA-MB-231 it was 5.54; in the data set with SW480, 5.56; in the data set with SMMC-7721 it was 5.43.

For the molecule `C=C1C(=O)[C@@]23C(=O)OC[C@]4(C=CCC(C)(C)[C@H]4C=O)[C@@H]2CC[C@@H]1[C@H]3OC(=O)/C=C/c1ccnc(F)c1`, the pIC50 was 6.12 with K562 [1], 6.10 with MDA-MB-231, 5.95 with SW480 and 6.04 in the data set with SMMC-7721.

As to `C=C1C(=O)[C@@]23C(=O)OC[C@]4(C=CCC(C)(C)[C@H]4C=O)[C@@H]2CC[C@@H]1[C@H]3OC(=O)/C=C/C`, the pIC50 in the data set with K562 [1] was 5.73; with MDA-MB-231, 5.29; in the data set on SW480, 5.42; with SMMC-7721 it was 5.42.

Regarding `C=C1C(=O)[C@@]23C(=O)O[C@H]4CCC(C)(C)[C@H]5C(=O)OC[C@]45[C@H]2CC[C@@H]1[C@H]3OC(=O)/C=C/c1ccncc1F`, the pIC50 in the data set with K562 [1] was 6.17; with MDA-MB-231, 6.06; with SW480 it was 6.01; with SMMC-7721, 6.00.

As for `C=C1C(=O)[C@@]23C(=O)OC[C@]4(C=CCC(C)(C)[C@H]4C=O)[C@@H]2CC[C@@H]1[C@H]3OC(=O)/C=C/c1ccco1`, the pIC50 with K562 [1] is 5.74; in the data set on MDA-MB-231, 5.53; in the data set with SW480, 5.64; with SMMC-7721, 5.55.

Regarding `C=C1C(=O)[C@@]23C(=O)OC[C@]4(C=CCC(C)(C)[C@H]4C=O)[C@@H]2CC[C@@H]1[C@H]3OC(=O)/C=C/c1cncnc1`, the pIC50 is 6.12 with K562 [1], 5.65 in the data set with MDA-MB-231, 6.01 in the data set on SW480 and 5.70 in the data set on SMMC-7721.

For the molecule `C=C1C(=O)[C@@]23C(=O)O[C@H]4CCC(C)(C)[C@H]5C(=O)OC[C@]45[C@H]2CC[C@@H]1[C@H]3OC(=O)/C=C/c1cncnc1`, the pIC50 was 6.03 in the data set on K562 [1], 5.66 with MDA-MB-231, 5.99 in the data set with SW480 and 5.70 in the data set with SMMC-7721.

Turning to `C=C1C(=O)[C@@]23C(=O)OC[C@]4(C=CCC(C)(C)[C@H]4C=O)[C@@H]2CC[C@@H]1[C@H]3OC(=O)/C=C/c1ccccn1`, the pIC50 in the data set with K562 [1] is 6.25; in the data set on MDA-MB-231, 5.90; in the data set with SW480, 6.18; with SMMC-7721, 6.10.

For `C=C1C(=O)[C@@]23C(=O)OC[C@]4(C=CCC(C)(C)[C@H]4C=O)[C@@H]2CC[C@@H]1[C@H]3OC(=O)/C=C/c1ccsc1`, the pIC50 is 5.61 in the data set on K562 [1], 5.42 in the data set with MDA-MB-231, 5.49 in the data set on SW480 and 5.42 in the data set with SMMC-7721.

`C=C1C(=O)[C@@]23C(=O)O[C@H]4CCC(C)(C)[C@H]5C(=O)OC[C@]45[C@H]2CC[C@@H]1[C@H]3O`: the pIC50 was 5.26 in the data set on K562 [1], 5.12 in the data set with MDA-MB-231, 5.18 with SW480 and 5.25 in the data set on SMMC-7721.

For the molecule `C=C1C(=O)[C@@]23C(=O)OC[C@]4(C=CCC(C)(C)[C@H]4C=O)[C@@H]2CC[C@@H]1[C@H]3OC(=O)/C=C/c1ccc2ccccc2n1`, the pIC50 was 5.91 with K562 [1], 5.29 in the data set with MDA-MB-231, 5.47 in the data set on SW480 and 5.52 in the data set with SMMC-7721.

For `C=C1C(=O)[C@@]23C(=O)OC[C@]4(C=CCC(C)(C)[C@H]4C=O)[C@@H]2CC[C@@H]1[C@H]3OC(=O)/C=C/c1ccnc(C)c1`, the pIC50 with K562 [1] was 6.01; in the data set with MDA-MB-231, 5.83; with SW480, 5.77; in the data set on SMMC-7721, 5.99.

In the case of `C=C1C(=O)[C@@]23C(=O)OC[C@]4(C=CCC(C)(C)[C@H]4C=O)[C@@H]2CC[C@@H]1[C@H]3OC(=O)/C=C/c1ccccc1`, the pIC50 with K562 [1] was 5.82; in the data set with MDA-MB-231, 5.49; in the data set with SW480, 5.45; with SMMC-7721 it was 5.50.

For the molecule `C=C1C(=O)[C@@]23C(=O)OC[C@]4(C=CCC(C)(C)[C@H]4C=O)[C@@H]2CC[C@@H]1[C@H]3OC(=O)/C=C/c1ccc2ccccc2c1`, the pIC50 in the data set on K562 [1] was 5.72; in the data set on MDA-MB-231, 5.61; with SW480 it was 5.51; in the data set with SMMC-7721, 5.66.

`C=C1C(=O)[C@@]23C(=O)OC[C@]4(C=CCC(C)(C)[C@H]4C=O)[C@@H]2CC[C@@H]1[C@H]3OC(=O)/C=C/c1ccncc1F`: the pIC50 with K562 [1] is 6.27; in the data set with MDA-MB-231, 6.08; in the data set with SW480 it was 6.14; in the data set on SMMC-7721, 6.21.

On to `C=C1C(=O)[C@@]23C(=O)O[C@H]4CCC(C)(C)[C@H]5C(=O)OC[C@]45[C@H]2CC[C@@H]1[C@H]3OC(=O)/C=C/c1ccnc(OC)c1`, for which the negative-log IC50 (pIC50) in the data set with K562 [1] was 6.17; in the data set on MDA-MB-231, 6.08; with SW480, 6.03; in the data set with SMMC-7721, 6.02.

`C=C1C(=O)[C@@]23C(=O)O[C@H]4CCC(C)(C)[C@H]5C(=O)OC[C@]45[C@H]2CC[C@@H]1[C@H]3OC(=O)/C=C/c1ccncc1C`: the pIC50 in the data set on K562 [1] was 6.04; in the data set with MDA-MB-231 it was 5.97; in the data set on SW480, 6.12; in the data set with SMMC-7721, 5.97.

As to `C=C1C(=O)[C@@]23C(=O)OC[C@]4(C=CCC(C)(C)[C@H]4C=O)[C@@H]2CC[C@@H]1[C@H]3OC(=O)/C=C/c1ccncc1OC`, the pIC50 with K562 [1] is 6.38; in the data set with MDA-MB-231, 6.06; with SW480, 6.24; in the data set with SMMC-7721, 6.10.

As to `C=C1C(=O)[C@@]23C(=O)OC[C@]4(C=CCC(C)(C)[C@H]4C=O)[C@@H]2CC[C@@H]1[C@H]3OC(=O)/C=C/c1ccc2c(c1)OCO2`, the pIC50 with K562 [1] is 5.73; in the data set with MDA-MB-231, 5.51; in the data set with SW480, 5.46; with SMMC-7721, 5.50.

The values are drawn from ChEMBL document CHEMBL5325391, “Spirolactone-type and enmein-type derivatives as potential anti-cancer agents derived from oridonin” (Bioorg Med Chem, 2022).
